Where two headings read alike, the source gives them in different places.
Legend:
vaccinia virus WR [1] = assay: microbe, parasite or virus in culture; assay type: cell-based
vaccinia virus WR [2] = assay type: cell-based
vaccinia virus WR [3] = assay: microbe, parasite or virus in culture; assay type: cell-based; remark: listed apart in the source
BS-C-1 cells = assay: WST-1 cytotoxicity assay; conditions: for CC50: Table 4; for tox 20 h TC50 / tox 72 h TC50 / tox 120 h TC50: Table 6
WST-1 cytotoxicity assay = conditions: African green monkey, BS-C-1 cells
[4] = target: vaccinia virus DNA synthesis (viral DNA polymerase and its associated factors) (Vaccinia virus, UniProt P06856); assay type: biochemical
[5] = Solubility in cell growth medium by light scattering; conditions: concentrations of the activity assays
Experimental: These 16 compounds were tested for cell protection and cytotoxicity over longer times (48 h and 72 h). […] The solubility of the 16 compounds was verified in cell growth medium over the range of concentrations used in the activity assays.

vaccinia virus = assay type: cell-based
[6] = Orthopoxvirus vaccinia, 20 h, read-out: Cell Protection 20 h EC50
[7] = read-out: Cytotoxicity 20 h CC50, 20 h
[8] = Orthopoxvirus vaccinia, BSC-1, 20 h, read-out: cell prot EC50
[9] = Orthopoxvirus vaccinia, 20 h, read-out: Plaque Reduction 20 h EC50
[10] = Orthopoxvirus vaccinia, BSC-1, 20 h, read-out: plaque red EC50
[11] = read-out: Cytotoxicity 72 h CC50, 72 h
[12] = read-out: Cytotoxicity 120 h CC50, 120 h
[13] = read-out: DNA Synthesis Inhibition IC50

Row | Compound | EC50 (vaccinia virus WR [1]; [6]) [µM] | Effect of dsDNA (vaccinia virus WR [2]) | CC50 (BS-C-1 cells; [7]) [µM] | Selectivity Index SI (vaccinia virus WR [1]) | EC50 (vaccinia virus WR [1]; [8]) [µM] | EC50 (vaccinia virus WR [3]; [9]) [µM] | EC50 (vaccinia virus WR [3]; [10]) [µM] | trapped by dsDNA (vaccinia virus WR [2]) | tox 20 h TC50 (BS-C-1 cells; 20 h) [µM] | tox 72 h TC50 (BS-C-1 cells; 72 h) [µM] | tox 120 h TC50 (BS-C-1 cells; 120 h) [µM] | CC50 (BS-C-1 cells; [12]) [µM] | IC50 [4, 13] [µM] | IC50 ([4]; read-out: DNA synth IC50) [µM] | selectivity index (vaccinia virus WR [1]) | further results
1 | C[C@@]1(CO)[C@H](O)CC[C@@]2(C)[C@H]1CC[C@H]1C[C@@H]3C[C@@]12CC[C@]3(O)CO [Aphidicolin, reference compound] | 18 | No | – | – | – | – | – | – | – | – | – | – | – | – | – | –
2 | Nc1ccn([C@@H]2O[C@H](CO)[C@@H](O)[C@@H]2O)c(=O)n1 [Ara-C, reference compound] | – | Yes | 16 | – | – | – | – | – | – | – | – | – | – | – | – | EC50 (vaccinia virus WR [1]; read-out: Cell Protection 20 h EC50): 0.24 µM; EC50 (vaccinia virus WR [3]; read-out: Plaque Reduction 20 h EC50): 0.5 µM
3 | Nc1ccn(C[C@@H](CO)OCP(=O)(O)O)c(=O)n1 [Cidofovir, reference compound] | 132 | No | – | >18.9 | 132 | 50 | 50 | no | >500 | >500 | 300 | 300 | – | – | – | CC50 at 20 h (WST-1 cytotoxicity assay): > 2500 µM; CC50 (BS-C-1 cells; [11]): > 500 µM
4 | COC(=O)c1cccc2c1-c1ccccc1/C2=N\O [Compound 1] | 9.6 | No | 127 | 13.2 | 9.6 | 10 | 10 | no | 127 | – | 20 | 20 | 108 | 108 | 13.2 | selectivity index over 72 h (vaccinia virus WR [1]): 3.2
5 | CCOC(=O)c1c(NC(=O)/C=C/C(=O)O)sc(C)c1-c1ccccc1 [Compound 2] | 30 | No | 159 | – | 30 | 25 | 25 | no | 159 | – | – | – | 374 | 374 | – | –
6 | CCn1c2ccccc2c2ccc(/C=N/n3cnnc3)cc21 [Compound 3] | 50 | No | > 200 | >4.0 | 50 | 50 | 50 | no | >200 | 36 | 3 | 3 | 131 | 131 | >4.0 | CC50 (BS-C-1 cells; [11]): 36 µM
7 | Cc1csc2c(N3CCN(C(=O)NC(C)(C)C)CC3)ncnc12 [Compound 4] | 50 | No | 157 | 3.1 | 50 | 15 | 15 | no | 157 | – | 40 | 40 | 12 | 12 | 3.1 | –
8 | CCNc1nc(SCc2ccc(Cl)cc2)nc2sc3c(c12)CCN(C)C3 [Compound 5] | 45 | No | 115 | 2.6 | 42 | 15 | 15 | no | 155 | – | 5 | 5 | 129 | 129 | 2.6 | –
9 | Cc1cc(/N=C/c2cc(Cl)cc(Cl)c2O)no1 [Compound 6] | 95 | No | > 200 | >2.1 | 95 | 75 | 75 | no | >200 | 50 | 20 | 20 | 30 | 30 | >2.1 | CC50 at 72 h (WST-1 cytotoxicity assay): ~50 µM
10 | Cc1c(/N=C/c2cc(Br)cc(Br)c2Br)cccc1C(=O)O [Compound 7] | 100 | No | – | >2 | 100 | 75 | 75 | no | >200 | 38 | 20 | – | 26 | 26 | >2 | CC50 at 20 h (WST-1 cytotoxicity assay): > 200 µM; CC50 at 72 h (WST-1 cytotoxicity assay): 38 µM; CC50 at 120 h (WST-1 cytotoxicity assay): 20 µM
11 | O=C(Nc1ccccc1C(=O)O)OCC1c2ccccc2-c2ccccc21 [Compound 9] | 104 | No | > 200 | >1.9 | 104 | 75 | 75 | no | >200 | 40 | 20 | 20 | 26 | 26 | >1.9 | CC50 at 72 h (WST-1 cytotoxicity assay): 30 to 50 µM
12 | Cc1ccc2c(Sc3ccc(Cl)cc3)c(C(=O)O)[nH]c2c1 [Compound 11] | 130 | No | > 200 | >1.5 | 130 | 75 | 75 | no | >200 | 174 | 120 | 120 | 43 | 43 | >1.5 | CC50 (BS-C-1 cells; [11]): 174 µM
13 | O=C(O)Cn1c2ccc(Cl)cc2c2nc3ccccc3nc21 [Compound 13] | 100 | No | > 100 | – | 100 | 50 | 50 | no | >100 | 13 | 30 | 30 | – | – | – | Solubility in cell growth medium [5]: just slightly insoluble at the EC50; CC50 (BS-C-1 cells; [11]): 13 µM
14 | N=C1/C(=C/c2coc3ccccc3c2=O)C(=O)N=C2SC=NN12 [Compound 14] | 188 | No | > 200 | >1 | 188 | 150 | 150 | no | >200 | >200 | 50 | 50 | 75 | 75 | >1 | CC50 (BS-C-1 cells; [11]): > 200 µM
15 | CC(=O)n1c2ccccc2c2nc(C)sc21 [Compound 15] | 236 | No | > 200 | >1 | 236 | 100 | 100 | no | >200 | >200 | 75 | 75 | 111 | 111 | >1 | CC50 (BS-C-1 cells; [11]): > 200 µM
16 | O=C1/C(=C/C2CCCO2)CC/C1=C\C1CCCO1 (stereo not shown) [Compound 16] | 100 | No | > 100 | >1 | 100 | 50 | 50 | no | >100 | >100 | 50 | – | 239 | 239 | >1 | Solubility in cell growth medium [5]: just slightly insoluble at the EC50
17 | CC[n+]1c(-c2ccccc2)c2cc(N)ccc2c2ccc(N)cc21 [Ethidium, reference compound] | 100 | Yes | – | – | – | – | – | – | – | – | – | – | – | – | – | –
18 | CCN(CC)CCCC(C)Nc1c2ccc(Cl)cc2nc2ccc(OC)cc12 (stereo not shown) [Quinacrine, reference compound] | 17 | Yes | – | – | – | – | – | – | – | – | – | – | – | – | – | –
19 | [H]/N=C1/SC(=Cc2ccco2)C(=O)N1c1nccs1 [XXXII, (E)-5-(furan-2-ylmethylene)-2-imino-3-(thiazol-2-yl)thiazolidin-4-one] | – | – | – | – | – | – | – | – | – | – | – | – | – | – | – | Blocking the replication of vaccinia virus in cells (vaccinia virus): effective in blocking the replication of vaccinia virus in cells
20 | COc1ccc(Nc2cc(C(F)(F)F)ccc2Cl)c(C(=O)O)c1 [XXXIV, 2-(2-chloro-5-(trifluoromethyl)phenylamino)-5-methoxybenzoic acid] | – | – | – | – | – | – | – | – | – | – | – | – | – | – | – | Blocking the replication of vaccinia virus in cells (vaccinia virus): effective in blocking the replication of vaccinia virus in cells
21 | O=C1CSC(=S)N1/N=C/c1ccc(Cl)c([N+](=O)[O-])c1 [XXXIX, (E)-3-(4-chloro-3-nitrobenzylideneamino)-2-thioxothiazolidin-4-one] | – | – | – | – | – | – | – | – | – | – | – | – | – | – | – | Blocking the replication of vaccinia virus in cells (vaccinia virus): effective in blocking the replication of vaccinia virus in cells
22 | CN1CCc2c(-c3cccs3)nc(OCc3ccccc3Br)c(C#N)c2C1 [XXXV, 3-(2-bromobenzyloxy)-6-methyl-1-(thiophen-2-yl)-5,6,7,8-tetrahydro-2,6-naphthyridine-4-carbonitrile] | – | – | – | – | – | – | – | – | – | – | – | – | – | – | – | Blocking the replication of vaccinia virus in cells (vaccinia virus): effective in blocking the replication of vaccinia virus in cells

Source: patent US9211296B2, “Therapeutic compounds for blocking DNA synthesis of POX viruses” (priority 2007, dated 2015)
